Experimental data taken from ChEMBL document CHEMBL1201862, “PubChem BioAssay data set” (2004).
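Compound exposure: 48 hours, 5 concentrations, 96-well plates. GI50 is the concentration that inhibits growth by half.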 Active and inactive are the calls of the source. Cut-off read from the data, not from the text of the source: active = GI50 up to about 1.1 µM and inactive = higher.

Legend:
Experiment in all cases: NCI-60 cell line screen, 48 h
HOP-62 = tested on: HOP-62
ACHN = tested on: ACHN
CCRF-CEM = tested on: CCRF-CEM
SNB-19 = tested on: SNB-19
UACC-62 = tested on: UACC-62
786-0 = tested on: 786-0
A498 = tested on: A498
MOLT-4 = tested on: MOLT-4
SK-OV-3 = tested on: SK-OV-3
SK-MEL-5 = tested on: SK-MEL-5
SW-620 = tested on: SW-620
OVCAR-8 = tested on: OVCAR-8
NCI-H23 = tested on: NCI-H23
A549 = tested on: A549
UACC-257 = tested on: UACC-257
NCI-H226 = tested on: NCI-H226
LOX IMVI = tested on: LOX IMVI

Measured: GI50

O=C(O)/C(Cl)=C(Cl)/C=N/NC(=O)c1cc2ccccc2cc1O
inactive: HOP-62 36.6 µM | ACHN 18 µM | CCRF-CEM 4.86 µM | SNB-19 35.2 µM | UACC-62 3.6 µM | 786-0 19.1 µM | A498 24.6 µM | MOLT-4 5.89 µM | SK-OV-3 49.2 µM | SK-MEL-5 9.82 µM | SW-620 17.3 µM | OVCAR-8 19.7 µM | NCI-H23 8.57 µM | A549 9.18 µM | UACC-257 15.5 µM | NCI-H226 18.6 µM

Cc1ccc(/C=C2\CCCC(C(NO)c3ccc(C)cc3)C2=NO)cc1 (stereo not drawn)
inactive: HOP-62 59.8 µM | ACHN > 100 µM | CCRF-CEM 21 µM | SNB-19 83.6 µM | UACC-62 89.5 µM | 786-0 58.3 µM | A498 49.8 µM | MOLT-4 19.1 µM | SK-OV-3 > 100 µM | SK-MEL-5 21.2 µM | SW-620 42.6 µM | OVCAR-8 53 µM | NCI-H23 24 µM | A549 36.1 µM | UACC-257 29.6 µM

COc1nc2c(c(O)c(C)c(=O)n2OC2OC(COC(C)=O)C(OC(C)=O)C(OC(C)=O)C2OC(C)=O)c(=O)n1C (stereo not drawn)
inactive: HOP-62 > 100 µM | ACHN > 100 µM | CCRF-CEM > 100 µM | SNB-19 > 100 µM | UACC-62 > 100 µM | 786-0 > 100 µM | MOLT-4 > 100 µM | SK-MEL-5 > 100 µM | SW-620 > 100 µM | LOX IMVI > 100 µM | OVCAR-8 > 100 µM | NCI-H23 > 100 µM | A549 > 100 µM | NCI-H226 > 100 µM

O=C(c1ccccc1)c1c(CNCc2ccccc2)n(C(=O)c2ccccc2)c2ccccc12
inactive: HOP-62 80.5 µM | ACHN 14.5 µM | CCRF-CEM 23.2 µM | SNB-19 22.8 µM | UACC-62 95.3 µM | 786-0 > 100 µM | MOLT-4 7.43 µM | SK-MEL-5 29.9 µM | SW-620 71.6 µM | OVCAR-8 37.4 µM | NCI-H23 17.1 µM | A549 22.4 µM | UACC-257 29.6 µM | NCI-H226 29.6 µM

CCOC1=C2N=C(C(CC)c3ccccc3F)N=C2C(=O)c2ccccc21 (stereo not drawn)
inactive: HOP-62 > 100 µM | ACHN > 100 µM | CCRF-CEM > 100 µM | SNB-19 > 100 µM | UACC-62 > 100 µM | 786-0 > 100 µM | MOLT-4 24 µM | SW-620 > 100 µM | OVCAR-8 > 100 µM | NCI-H23 > 100 µM | A549 > 100 µM | UACC-257 > 100 µM | NCI-H226 > 100 µM

COc1ccc(/C=C2\CCC(C)(CN(C)C)C2=O)cc1 (stereo not drawn)
inactive: HOP-62 > 100 µM | ACHN > 100 µM | SNB-19 6.18 µM | UACC-62 > 100 µM | 786-0 > 100 µM | A498 > 100 µM | MOLT-4 > 100 µM | SK-MEL-5 > 100 µM | SW-620 > 100 µM | LOX IMVI > 100 µM | OVCAR-8 > 100 µM | NCI-H23 > 100 µM | A549 > 100 µM | UACC-257 > 100 µM | NCI-H226 > 100 µM

CCCCN(CCCC)C(=O)C(=O)C(C)C(=O)CC (stereo not drawn)
inactive: HOP-62 > 100 µM | ACHN > 100 µM | SNB-19 > 100 µM | UACC-62 > 100 µM | 786-0 > 100 µM | MOLT-4 > 100 µM | SK-OV-3 > 100 µM | SW-620 > 100 µM | LOX IMVI > 100 µM | OVCAR-8 > 100 µM | NCI-H23 > 100 µM | A549 > 100 µM | UACC-257 > 100 µM | NCI-H226 > 100 µM

NNC(=O)N/N=C1\C(=O)N(c2ccc(Cl)c(Cl)c2)C(=O)C(=O)C1c1nc2ccccc2s1 (stereo not drawn)
inactive: HOP-62 > 100 µM | ACHN > 100 µM | CCRF-CEM 50.2 µM | SNB-19 > 100 µM | UACC-62 > 100 µM | 786-0 > 100 µM | A498 > 100 µM | MOLT-4 69.3 µM | SK-OV-3 > 100 µM | SK-MEL-5 > 100 µM | SW-620 > 100 µM | OVCAR-8 > 100 µM | NCI-H23 > 100 µM | A549 > 100 µM | UACC-257 > 100 µM | NCI-H226 > 100 µM

Cc1cc2c(C)nn(Cc3ccccc3Cl)c2c(C#N)c1C
inactive: HOP-62 > 100 µM | ACHN > 100 µM | CCRF-CEM > 100 µM | SNB-19 > 100 µM | UACC-62 > 100 µM | 786-0 > 100 µM | MOLT-4 > 100 µM | SK-OV-3 > 100 µM | SW-620 > 100 µM | LOX IMVI > 100 µM | OVCAR-8 > 100 µM | NCI-H23 > 100 µM | A549 > 100 µM | UACC-257 > 100 µM | NCI-H226 > 100 µM

C/C=C/C#CC#C/C=C/C=C/C(O)CCO (stereo not drawn)
inactive: HOP-62 > 23.1 µM | ACHN > 23.1 µM | CCRF-CEM > 23.1 µM | SNB-19 > 23.1 µM | UACC-62 > 23.1 µM | 786-0 > 23.1 µM | MOLT-4 17.5 µM | SK-OV-3 > 23.1 µM | SK-MEL-5 > 23.1 µM | SW-620 > 23.1 µM | LOX IMVI > 23.1 µM | OVCAR-8 > 23.1 µM | NCI-H23 > 23.1 µM | A549 > 23.1 µM | UACC-257 > 23.1 µM | NCI-H226 > 23.1 µM
